This is an account of results in paper PMC6030096, “Synergy of Physico-chemical and Biological Experiments for Developing a Cyclooxygenase-2 Inhibitor” (Scientific Reports, 2018).

The assay deals with T1, 5-LOX (Soybean lipoxygenase) (Glycine max, UniProt P08170).
T1 construct: purchased Cayman Chemical Co. 760700
T1 sequence (P08170 1-839): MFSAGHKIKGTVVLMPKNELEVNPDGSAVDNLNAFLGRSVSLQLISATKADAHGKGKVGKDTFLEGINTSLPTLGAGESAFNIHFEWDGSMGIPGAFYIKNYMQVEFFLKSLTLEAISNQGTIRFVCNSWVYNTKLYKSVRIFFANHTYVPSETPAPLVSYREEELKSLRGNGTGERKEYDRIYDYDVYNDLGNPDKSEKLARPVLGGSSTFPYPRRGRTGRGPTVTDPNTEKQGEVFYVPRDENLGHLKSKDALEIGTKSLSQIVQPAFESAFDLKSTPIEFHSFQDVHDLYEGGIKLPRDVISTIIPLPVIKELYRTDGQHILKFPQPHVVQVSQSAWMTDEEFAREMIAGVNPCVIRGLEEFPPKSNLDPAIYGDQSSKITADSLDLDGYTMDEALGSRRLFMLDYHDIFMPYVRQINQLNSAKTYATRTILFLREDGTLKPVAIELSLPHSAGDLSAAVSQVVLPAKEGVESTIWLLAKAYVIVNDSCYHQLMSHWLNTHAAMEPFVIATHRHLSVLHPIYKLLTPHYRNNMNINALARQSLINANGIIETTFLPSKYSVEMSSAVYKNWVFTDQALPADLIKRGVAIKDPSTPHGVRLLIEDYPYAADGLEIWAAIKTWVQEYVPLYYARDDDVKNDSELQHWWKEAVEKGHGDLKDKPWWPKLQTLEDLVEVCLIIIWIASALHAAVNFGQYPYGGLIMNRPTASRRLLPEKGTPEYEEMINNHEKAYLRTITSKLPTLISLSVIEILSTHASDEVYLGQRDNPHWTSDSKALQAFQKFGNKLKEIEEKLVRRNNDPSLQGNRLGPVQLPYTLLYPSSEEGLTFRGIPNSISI
Nature of the assay: Lipoxygenase inhibitory activity assay. Format: biochemical. As to the method:
10 µL of the compound of each concentration was mixed with 90 µL 5-LOX (Soybean lipoxygenase in assay buffer) in the specified wells of the 96-well plate. Two wells containing assay buffer and AA acted as blanks whereas four wells, each carrying enzyme and AA, were positive controls. 10 µL AA was added to each test well and the plate was shaken for 5 min. Chromogen (100 µL) was added to each well and the plate was again shaken for 5 min. The absorbance of each well at 490 nm was recorded on microplate scanning spectrophotometer. As per the protocol given with the assay kit, the 5-LOX inhibitory activity for each compound at each concentration was determined using the mean of the two values (duplicate experiments) with deviation <5%.

[1] abbreviates: soybean lipoxygenase, duplicate, read-out: IC50 5-LOX.

Like-named read-outs stand apart in the source and are kept apart here.

Regarding `O=C1Nc2ccccc2C1=Cc1cn(C[C@H](O)Cn2c3ccccc3c(=O)c3ccccc32)c2ccccc12` [(S)-3c], under setting [1], the IC50 came to 500 ± 28 nM.

Regarding `O=C1NC(=O)C(=Cc2cn(CCCn3c4ccccc4c(=O)c4ccccc43)c3ccccc23)C(=O)N1` [Compound 4a], the IC50 came to 200 ± 10 nM.

On to `O=C1Nc2ccccc2C1=Cc1cn(CCCn2c3ccccc3c(=O)c3ccccc32)c2ccccc12` [Compound 4c], for which the IC50 under setting [1] is 100 ± 80 nM.

For orientation: IC50 means the concentration that inhibits the measured activity by half.
